The structures appear in SMILES notation.

For the data set, the system named is enterobacterium. Briefly: Stability against enterobacterium (feces / cecum homogenates). The data set is classed as in vitro ADME. Particulars: cynomolgus monkey feces and rat cecum homogenates, 3 and 30 μM, 37° C., 24 hours; all conditions. The method, then: A culture medium was added to fresh feces of a cynomolgus monkey and rat cecum to prepare homogenates. To a homogenate was added the compound of the Example 2, or 1-{4-[5-(4-isopropoxyphenyl)-1,2,4-oxadiazol-3-yl]benzyl}azetidine-3-carboxylic acid (the compound of the Example 29 of Non-Patent Document 5) adjusted at a concentration of 3 and 30 μM, and the mixture was anaerobically cultured at 37° C. for 24 hours. After the cultivation, the concentration of the residual compound in the culture medium was measured on LC-MS.

Consider `CC(C)Oc1ccc(-c2cnc(-c3ccc(CN4CC(C(=O)O)C4)cc3)s2)cc1` [Example 2, 1-(4-(5-(4-isopropoxyphenyl)thiazol-2-yl)benzyl)azetidine-3-carboxylic acid], for which the “residual compound after anaerobic culture with homogenate” value is “remained almost completely intact”.

Values taken from US8895753B2, “S1P receptor modulating agent” (Meiji Seika Pharma Co., Ltd., priority 2011, dated 2014).
